Tests used:
AAD-13 (v2) = molecular target: T1, AAD-13 (v2) (Sphingobium herbicidovorans, UniProt Q700X4); format: biochemical; settings: substrate 1 mM; rate as percentage of 2,4-D rate in same sample set; propionate rates divided by two
T1 construct: His tag (C); made in house; host or cells: E. coli BL-21, pET-26b(+)
From the text: In order to test a broad range of substrates, the production of succinate from the breakdown of α-ketoglutarate was detected spectrophotometricly using a protocol based on the method of Luo et. al. (2006) (Anal. Biochem. 353: 69-74). As depicted in FIG. 3, the concomitant breakdown of α-ketoglutarate and the substrate of interest via AAD-13, results in the production of succinate. Succinate is further modified to succinyl-CoA by succinyl-CoA synthetase which consumes ATP and produces ADP. ADP is then consumed by the commonly employed pyruvate kinase/lactate dehydrogenase enzymatic coupling system (Sigma P0294). The resulting conversion of NADH to NAD is monitored spectrophotometrically at 340 nm.
Identification of AAD-13 (v2) substrates in vitro was based on enzymatic activity detected during continuous spectrophotometric monitoring of a 0.2 mL reaction volume in a 96 well microtiter plate. Reaction conditions were as follows: 100 mM MOPS pH 7.0, 0.4 mM NADH, 0.4 mM ATP, 0.4 mM CoA, 1 mM PEP, 10 mM MgCl2, 0.1 mM […] (solubilized in HCl), and 0.1 mM ascorbate, 1 mM α-ketoglutarate and sufficient AAD-13 (v2) to produce an observable rate in the presence of 2,4-D. Coupling enzymes (SCS/PK/LDH) were adjusted by batch to ensure adequate coupling, and potential substrates were generally assayed at 1 mM. Alterations in substrate concentrations were made as needed to adjust for solubility. Reactions were initiated by either the addition of AAD-13 (v2) or potential substrate. The rate of substrate independent conversion of α-ketoglutarate to succinate by AAD was monitored under the above assay conditions and subtracted from the observed reaction rates. […] Additionally, propionate compounds were checked for pyruvate contamination by spectrophotometrically monitoring the consumption of NADH in the presence of compound and PK/LDH.
Reaction rates are reported as a percentage of the 2,4-D reaction rate obtained in the same sample set. […] It should be noted that faster rates can be more difficult to accurately compare depending on the percentage of available substrate consumed. […] As a result, highly efficient substrates will be properly grouped when compared to low efficiency substrates. Within the grouping of highly efficient substrates however, compounds may not be quantitatively separated by a screen using single rates of substrate and AAD.

[1] = system: Segregating T2 AAD-13 (v1) Arabidopsis plants (pDAB4114.01.094); assay: Foliar pyridyloxyacetate response of segregating T2 AAD-13 (v1) Arabidopsis; format: in vivo, Arabidopsis thaliana
Method: The ability of AAD-13 (v1) to provide resistance to other aryloxyalkanoate auxin herbicides in transgenic Arabidopsis was determined by foliar application of various substrates. T2 generation Arabidopsis seed was stratified, and sown into selection trays much like that of Arabidopsis (Example 6.4). A transformed-control line containing PAT and the insect resistance gene Cry1F was planted in a similar manner. Seedlings were transferred to individual 3-inch pots in the greenhouse. All plants were sprayed with the use of a track sprayer set at 187 L/ha. The plants were sprayed with a range of pyridyloxyacetate herbicides: 200-800 g ae/ha triclopyr (Garlon 3A, Dow AgroSciences) and 200-800 g ae/ha fluoroxypyr (Starane, Dow AgroSciences). The 2,4-D metabolite resulting from AAD-13 activity, 2,4-dichlorophenol (DCP, Sigma) (at a molar equivalent to 280-2240 g ae/ha of 2,4-D, technical grade will also be tested. All applications were formulated in water. Each treatment was replicated 3-4 times. Plants were evaluated at 3 and 14 days after treatment.

T1 sequence (Q700X4 other isoform, or with tags, fused parts or gaps): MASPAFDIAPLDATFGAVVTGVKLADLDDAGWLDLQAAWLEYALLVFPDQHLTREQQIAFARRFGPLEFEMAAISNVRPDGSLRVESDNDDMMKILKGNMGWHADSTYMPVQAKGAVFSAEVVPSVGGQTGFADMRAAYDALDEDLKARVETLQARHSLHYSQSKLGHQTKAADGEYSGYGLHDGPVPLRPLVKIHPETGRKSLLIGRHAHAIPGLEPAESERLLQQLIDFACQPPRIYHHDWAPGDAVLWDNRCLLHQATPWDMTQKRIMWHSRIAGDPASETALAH

Structure (SMILES): Nc1c(Cl)c(F)nc(OCC(=O)O)c1Cl [fluoroxypyr]
- % of 24D activity (AAD-13 (v2)): 67%
- Ave. % Injury 14DAT ([1]; 200 g ae/ha foliar-applied): 10%
- Ave. % Injury 14DAT ([1]; 400 g ae/ha foliar-applied): 16%
- Ave. % Injury 14DAT ([1]; 800 g ae/ha foliar-applied): 55%
- rate up to which robust resistance is provided ([1]; foliar application): up to 400 g ae/ha

Structure (SMILES): C[C@@H](Oc1ccc(Cl)cc1Cl)C(=O)O [R-dichloroprop, R-dichlorprop]
- % of 24D activity (AAD-13 (v2)): 19%

Structure (SMILES): O=C(O)COc1nc(Cl)c(Cl)cc1Cl [triclopyr]
- % of 24D activity (AAD-13 (v2)): 6%
- Ave. % Injury 14DAT ([1]; 200 g ae/ha foliar-applied): 75%
- Ave. % Injury 14DAT ([1]; 400 g ae/ha foliar-applied): 90%
- Ave. % Injury 14DAT ([1]; 800 g ae/ha foliar-applied): 100%
